Laboratory results from patent US8372409B2, “Dendritic cell binding proteins and uses thereof” (University of Florida Research Foundation, Inc., priority 2003, dated 2013).

What was measured:
[1] = test system: CD1a+DRbright CD11bright monocyte-derived human DC; assay: FACS binding of biotinylated DC-peptides to human monocyte-derived DC; details: for binding to monocyte-derived human DC: biotinylated peptides, FACS and confocal microscopy (FIG. 1A, 1B)
Experimental: (§1) Peripheral blood mononuclear cells (PBMCs) were isolated from blood of healthy or HCV^+ individuals by Ficoll gradient centrifugation. HCV RNA was detected in the blood of HCV-infected patients by RT-PCR. PBMCs (10^7/well) were seeded in 6-well plates for 2 hrs at 37° C. Subsequently, non-adherent cells were removed by several washes using PBS plus 2% fetal calf serum (FCS) and frozen for autologous MLR experiments. Adherent monocytes were cultured with GM-CSF (100 ng/ml) and IL-4 (10 ng/ml) in complete RPMI for 6 days (6). CD1a^+DR^bright DC were phenotyped by FACS before use. Rhesus macaque or chimpanzees DC were prepared in a parallel fashion by using Hgm-CSF (100 ng/ml) and Hil-4 (50 ng/ml) for six days (15). Mouse DC were prepared from bone marrow of BALB/c mice as described (16). On day six, CD11c^+I-A^+ DC were harvested, phenotyped and used for DC-peptide staining.
(§2) MDC (5×10^5) were incubated with biotinylated peptides (10 μg/ml each) for 1 hr at 4° C. Subsequently, cells were washed, incubated with SA-PE (1:100) for 1 hr, fixed with 0.1% paraformaldehyde and analyzed on a FACSCalibur™ using standard CellQuest software (Becton Dickinson). T cells were analyzed as we described (19). At least 10^4 gated events/condition were acquired for all analyses.
(§3) To test peptide binding specificity, biotinylated peptides #3, #12 and #18 were incubated with CD1a^+DR^bright CD11^bright monocyte-derived human DC, and analyzed by FACS.
The cognate ligands for these peptides are unknown. Thus, we next tested whether these peptides bound distinct epitopes. DC presaturated with non-biotinylated peptide no longer bound the corresponding biotinylated peptide (FIG. 2A). […] Thus, the three DC-binding peptides bound distinct, saturable DC surface epitopes.
Biotinylated peptide #3 bound immature DC within 1 hr at 4° C. (FIG. 2D). Staining was decreased over the following 20 hrs at 37° C. (FIG. 2D) consistent with antigen uptake by Dcs (15, 22). […] Peptides bound immature (upper panel) and mature MDC (lower panel) comparably (FIG. 2E), although LPS-mediated maturation appeared to increase peptide binding slightly by inducing a new, minor population of high peptide-binding DC.

[2] = test system: monocyte-derived DC from rhesus macaque; assay: FACS binding of biotinylated DC-peptides to rhesus macaque DC; details: FACS (FIG. 1E)
Experimental: as §1, §2, §3

[3] = test system: monocyte-derived DC from chimpanzee; assay: FACS binding of biotinylated DC-peptides to chimpanzee DC
Experimental: as §1, §2, §3

[4] = test system: CD11c+I-A+ DC derived from mouse bone marrow; assay: FACS binding of biotinylated DC-peptides to mouse bone marrow derived DC; details: FACS (FIG. 1F)
Experimental: as §1, §2, §3

Row | Sequence | binding to monocyte-derived human DC [1] | binding to monocyte-derived DC from rhesus macaque [2] | binding to monocyte-derived DC from chimpanzee [3] | binding to CD11c+I-A+ DC derived from mouse bone marrow [4] | binding of 12-mer peptide to DC ([1]; selected from the same panning as negative control) | staining of DC over the following 20 hrs ([1]; 37° C., consistent with antigen uptake (FIG. 2D)) | DC viability during peptide incubation ([1]; 20 hrs at 37° C.) | time to binding of immature DC ([1]; biotinylated peptide, 4° C. (FIG. 2D))
1 | AYYKTASLAPAE (PEPTIDE peptide specific to myeloid dendritic cells) [compound 12] | bound to DC | specifically bound | specifically bound | did not |  |  |  | 
2 | EPIHPETTFTNN [control peptide, reference compound] |  |  |  |  | did not bind to DC |  |  | 
3 | FYPSYHSTPQRP [peptide #3] | bound to DC | specifically bound | specifically bound | bound |  | decreased | remained viable | ≤ 1 h
4 | SLSLLTMPGNAS (PEPTIDE peptide specific to myeloid dendritic cells) [compound 18] | bound to DC | specifically bound | specifically bound | did not |  |  |  | 
